Source: US11882828B2, “Mosquito vector control compositions, methods and products utilizing same” (priority 2015, dated 2024)

Assays:
Test in all cases: Example B5: bottle based cross resistance study (CDC bottle assay)
Type in all cases: in vivo
An. stephensi = tested on: An. stephensi
Protocol: (§1) Based on the “CDC bottle assay” (described at http://www.cdc.gov/malaria/resources/pdf/fsp/ir_manual/ir_cdc_bioassay_en.pdf) 1 ml of ethanol containing a test compound at a defined concentration was added to a 250 ml glass bottle and the bottles were placed on a rolling table to coat the inner surfaces as the solvent evaporated. Once dry, twenty five non-blood fed adult female mosquitoes of the appropriate species and strains (each three day old) were aspirated from the stock culture and gently blown into the exposure bottles. The lid of the bottle was replaced and the bottle placed upright out of direct sun light under standard culture conditions, nominally 28C and 60-80% relative humidity.
(§2) A stopwatch was started, and the assessment of the knock-down were made after 15 minutes and 60 minutes. A mosquito was said to be knocked down if it was unable to stand, following the CDC definition. The bottles were replaced in an upright position when not being assessed.
(§3) After one hour the mosquitoes were carefully removed from the bottle with an aspirator and placed in a recovery cup. The mosquitoes were supplied with a 10% sucrose solution on a cotton wool bung, and stored under culture conditions. Assessments of the mortality were made after 24 hours.
(§4) Each treatment was replicated a minimum of four times, with the mean knockdown or mortality recorded. In each study, a set of bottles was infested with a known insecticide susceptible strain of mosquitoes from the same genera as the resistant strains.

An. Gambiae Tiassalé = tested on: An. Gambiae Tiassalé
Protocol: as §1, §2, §3, §4

An. Gambiae Kisumu sus = conditions: Kisumu sus
Protocol: as §1, §2, §3, §4

FUMOZ = conditions: Anopheles funestus, 24 h, Table B5c; 25 ppm; after 24 hours; FUMOZ
Protocol: as §1, §2, §3, §4

VK7 = conditions: Anopheles coluzzii, 24 h, Table B5c, after 24 hours
Protocol: as §1, §2, §3, §4

CO/C=C(/C(=O)OC)c1ccccc1Oc1nc(C(C)(C)C)ns1 [Compound 7, Methyl (E)-2-[2-[(3-tert-butyl-1,2,4-thiadiazol-5-yl)oxy]phenyl]-3-methoxy-prop-2-enoate]
Knockdown (%) at 15 mins (An. stephensi; 20 ppm, bottle, An. stephensi): 37%
Knockdown (%) at 60 mins (An. stephensi; 20 ppm, bottle, An. stephensi): 100%
mortality at 20 ppm (An. stephensi; Anopheles stephensi): 100%
Knockdown (%) at 15 mins (An. Gambiae Tiassalé; 20 ppm, bottle, Tiassalé): 70%
Knockdown (%) at 60 mins (An. Gambiae Tiassalé; 20 ppm, bottle, Tiassalé): 97%
mortality at 20 ppm (An. Gambiae Tiassalé; Anopheles gambiae): 95%
Knockdown (%) at 15 mins (An. Gambiae Kisumu sus; 20 ppm, bottle): 100%
Knockdown (%) at 60 mins (An. Gambiae Kisumu sus; 20 ppm, bottle): 100%
mortality at 20 ppm (An. Gambiae Kisumu sus; Anopheles gambiae, 20 ppm, bottle, one hour exposure, after 24 hours): 99%
mortality at 25 ppm (An. Gambiae Kisumu sus; Anopheles gambiae, 24 h, Table B5c, 25 ppm, after 24 hours): 97%
mortality at 25 ppm (FUMOZ): 20%
mortality at 25 ppm (VK7): 19%
